Assay [1] concerns the target T1, mACP9 (ACP domain from MLSA2, module 9 of the mycolactone PKS) (Mycobacterium ulcerans, UniProt Q6MZA5).
T1 construct: excised ACP domain, residues 2050-2140; N-terminal His6-tag cleaved by thrombin leaving GSHM; E. coli Tuner(DE3); monomer; Ppant attachment at Ser2096
Kind of assay: circular dichroism thermal denaturation. As to conditions: absolute Tm. Format: binding. (In general: CD spectra are sensitive to the conformation of chiral molecules.)

The target in assay [2] is T1, mACP9 (ACP domain from MLSA2, module 9 of the mycolactone PKS). The assay can be described thus: solution NMR structure. It is filed as binding. As to conditions: covalent at Ser2096; nonpolar pocket between helix α2 and turns α2′ and α3′; phosphate buffer pH 7.5, 283 K.

Usually Tm stands for the temperature at the midpoint of the melting transition. Turning to “hexanoyl-mACP9 (hexanoyl-phosphopantetheine group)”, in assay [1] (covalent at Ser2096 (hexanoyl-Ppant), buffer as above, apo and holo references in the same sentence), the Tm came to 58 °C.

As for `CC(C)(COP(=O)(O)O)[C@@H](O)C(=O)NCCC(=O)NCCS` [holo, 4′-phosphopantetheine], in assay [1] (covalent at Ser2096 (holo form), 20 mM sodium hydrogen phosphate, 50 mM NaF, pH 7.5, apo reference in the same sentence), the melting temperature (Tm) was determined as 59 °C.

Consider `CCCCCCCC(=O)SCCNC(=O)CCNC(=O)[C@H](O)C(C)(C)COP(=O)(O)O` [octanoyl, octanoyl-phosphopantetheine group], for which, in assay [2], the “solution NMR structure” value is “final ensemble for octanoyl-mACP9 were deposited in the Protein Data Bank under ID code 5HV8”. The Tm in assay [1] (covalent at Ser2096 (octanoyl-Ppant), buffer as above, apo and holo references in the same sentence) was 57 °C.

The values are drawn from PMC4847154, “Sticky swinging arm dynamics: studies of an acyl carrier protein domain from the mycolactone polyketide synthase” (Biochemical Journal, 2016).
